In article PMC9386018, “A lymphatic-absorbed multi-targeted kinase inhibitor for myelofibrosis therapy” (Nature Communications, 2022):
“And” between values parts separate entries of the source, which are not always exact repeats. Identical values can stand only once. One block for each molecule: values may come before it.

Legend:
[1] = target: T1, Target kinase isoforms (PI3K, mTOR, RAF, MEK) (Homo sapiens, UniProt O00329); assay: Target kinase isoforms 10-point IC50 determination (Supplementary Fig. 7); format: biochemical; details: PI3K delta
T1 sequence (O00329 1-1044): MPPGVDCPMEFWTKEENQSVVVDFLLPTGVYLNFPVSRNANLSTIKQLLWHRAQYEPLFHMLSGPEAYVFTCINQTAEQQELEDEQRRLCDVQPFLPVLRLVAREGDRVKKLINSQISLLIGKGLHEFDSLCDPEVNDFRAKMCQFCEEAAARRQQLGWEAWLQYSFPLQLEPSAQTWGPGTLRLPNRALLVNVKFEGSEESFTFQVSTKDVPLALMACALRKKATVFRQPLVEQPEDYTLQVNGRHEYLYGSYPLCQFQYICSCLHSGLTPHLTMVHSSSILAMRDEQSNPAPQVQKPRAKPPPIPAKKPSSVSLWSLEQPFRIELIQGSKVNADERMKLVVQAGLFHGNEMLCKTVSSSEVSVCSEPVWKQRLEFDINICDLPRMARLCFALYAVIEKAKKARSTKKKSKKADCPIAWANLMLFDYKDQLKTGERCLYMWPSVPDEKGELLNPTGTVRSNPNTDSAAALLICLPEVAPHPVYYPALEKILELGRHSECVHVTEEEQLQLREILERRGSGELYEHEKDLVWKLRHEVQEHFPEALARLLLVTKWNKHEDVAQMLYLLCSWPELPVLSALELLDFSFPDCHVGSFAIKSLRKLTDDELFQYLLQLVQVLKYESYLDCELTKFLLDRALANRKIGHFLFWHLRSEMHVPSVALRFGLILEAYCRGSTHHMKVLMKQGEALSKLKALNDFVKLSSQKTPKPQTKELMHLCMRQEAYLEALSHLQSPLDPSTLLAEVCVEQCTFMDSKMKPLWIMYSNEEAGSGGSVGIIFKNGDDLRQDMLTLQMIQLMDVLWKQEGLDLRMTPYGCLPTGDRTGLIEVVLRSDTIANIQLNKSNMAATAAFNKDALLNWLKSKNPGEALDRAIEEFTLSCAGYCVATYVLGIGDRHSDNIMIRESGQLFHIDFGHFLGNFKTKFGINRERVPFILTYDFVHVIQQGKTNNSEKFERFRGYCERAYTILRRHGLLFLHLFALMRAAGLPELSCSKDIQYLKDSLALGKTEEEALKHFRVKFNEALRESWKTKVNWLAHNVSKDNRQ
Source text: (§1) The average percent kinase inhibition from replicate data was ranked low to high, converted to a compatible identifier format, then input into Coral Human Kinome Visualization software for presentation analysis. […] Scaling of evolutionary distance for PI kinases is only relative and is based on literature analysis[62],[63]. Average percent kinome inhibition values from replicate data are supplied in Source Data file. […] Corrected data was normalized to vehicle treated control values, and dose response percent kinase activity was analyzed by non-linear regression for determination of IC50 values.

[2] = target: Target kinase isoforms (PI3K, mTOR, RAF, MEK) (Homo sapiens, UniProt P42336); assay: as above; format: biochemical; details: PI3K alpha
Source text: as §1

[3] = target: Target kinase isoforms (PI3K, mTOR, RAF, MEK) (Homo sapiens, UniProt P42338); assay: as above; format: biochemical; details: PI3K beta
Source text: as §1

[4] = target: Target kinase isoforms (PI3K, mTOR, RAF, MEK) (Homo sapiens, UniProt P48736); assay: as above; format: biochemical; details: PI3K gamma
Source text: as §1

[5] = Pharmacokinetic analysis of plasma after intravenous and oral dosing
Description: Samples were centrifuged at 15,000 rpm for 10 min, then blood plasma was collected from the upper layer and frozen at −80 °C until analysis. […] Sample processing, chromatographic separation, MS, and MS/MS parameters used for analysis were determined by the core. […] Standard curves for peak area ratio of compound to internal standard (Astd/AIstd) vs. compound concentration were used to determine sample analyte concentrations through linear regression with a weighting average of 1/X^2. […] All pharmacokinetic parameters were estimated using non-compartmental analysis with Phoenix/WINONLIN, and provided by the core along with calculated sample analyte concentrations. Data was generated from n ≥ 3 individual animals sampled per time point per compound for each method of dosing.

[6] = concentration 0.0187 nM, 18.7 pM
[7] = concentration 0.495 nM, 0.000495 µM
[8] = concentration 4.57 nM, 0.00457 µM
[9] = concentration 1.52 nM, 0.00152 µM

Chain of Target kinase isoforms (PI3K, mTOR, RAF, MEK) (Homo sapiens, UniProt P42338) (P42338 whole entry, canonical isoform): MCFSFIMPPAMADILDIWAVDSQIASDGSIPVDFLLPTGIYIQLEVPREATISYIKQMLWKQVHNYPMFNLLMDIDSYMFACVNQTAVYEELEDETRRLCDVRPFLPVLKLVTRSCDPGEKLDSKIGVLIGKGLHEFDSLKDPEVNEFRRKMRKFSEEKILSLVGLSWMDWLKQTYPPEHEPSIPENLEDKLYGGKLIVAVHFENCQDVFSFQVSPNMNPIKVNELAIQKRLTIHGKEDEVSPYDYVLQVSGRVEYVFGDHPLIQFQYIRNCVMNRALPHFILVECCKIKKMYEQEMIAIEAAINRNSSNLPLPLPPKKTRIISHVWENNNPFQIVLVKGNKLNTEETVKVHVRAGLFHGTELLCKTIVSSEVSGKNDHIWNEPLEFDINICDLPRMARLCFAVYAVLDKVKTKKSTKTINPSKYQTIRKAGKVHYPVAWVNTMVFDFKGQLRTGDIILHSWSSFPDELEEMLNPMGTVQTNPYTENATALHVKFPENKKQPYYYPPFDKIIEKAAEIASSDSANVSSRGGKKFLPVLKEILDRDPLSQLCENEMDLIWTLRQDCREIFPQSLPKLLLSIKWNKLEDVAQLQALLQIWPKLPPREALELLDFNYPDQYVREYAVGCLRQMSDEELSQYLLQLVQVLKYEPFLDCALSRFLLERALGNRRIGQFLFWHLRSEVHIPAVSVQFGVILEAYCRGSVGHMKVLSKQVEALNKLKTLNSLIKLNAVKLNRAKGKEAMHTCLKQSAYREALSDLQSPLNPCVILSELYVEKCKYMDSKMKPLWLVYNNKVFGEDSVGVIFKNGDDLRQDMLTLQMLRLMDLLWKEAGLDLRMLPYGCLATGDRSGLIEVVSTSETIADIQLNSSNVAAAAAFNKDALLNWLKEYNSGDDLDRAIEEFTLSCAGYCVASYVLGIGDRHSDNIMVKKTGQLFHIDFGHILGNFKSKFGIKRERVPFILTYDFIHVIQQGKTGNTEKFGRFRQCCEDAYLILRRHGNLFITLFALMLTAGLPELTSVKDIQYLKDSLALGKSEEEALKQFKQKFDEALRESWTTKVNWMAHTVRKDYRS
Chain of Target kinase isoforms (PI3K, mTOR, RAF, MEK) (Homo sapiens, UniProt P42336) (P42336 whole entry, canonical isoform): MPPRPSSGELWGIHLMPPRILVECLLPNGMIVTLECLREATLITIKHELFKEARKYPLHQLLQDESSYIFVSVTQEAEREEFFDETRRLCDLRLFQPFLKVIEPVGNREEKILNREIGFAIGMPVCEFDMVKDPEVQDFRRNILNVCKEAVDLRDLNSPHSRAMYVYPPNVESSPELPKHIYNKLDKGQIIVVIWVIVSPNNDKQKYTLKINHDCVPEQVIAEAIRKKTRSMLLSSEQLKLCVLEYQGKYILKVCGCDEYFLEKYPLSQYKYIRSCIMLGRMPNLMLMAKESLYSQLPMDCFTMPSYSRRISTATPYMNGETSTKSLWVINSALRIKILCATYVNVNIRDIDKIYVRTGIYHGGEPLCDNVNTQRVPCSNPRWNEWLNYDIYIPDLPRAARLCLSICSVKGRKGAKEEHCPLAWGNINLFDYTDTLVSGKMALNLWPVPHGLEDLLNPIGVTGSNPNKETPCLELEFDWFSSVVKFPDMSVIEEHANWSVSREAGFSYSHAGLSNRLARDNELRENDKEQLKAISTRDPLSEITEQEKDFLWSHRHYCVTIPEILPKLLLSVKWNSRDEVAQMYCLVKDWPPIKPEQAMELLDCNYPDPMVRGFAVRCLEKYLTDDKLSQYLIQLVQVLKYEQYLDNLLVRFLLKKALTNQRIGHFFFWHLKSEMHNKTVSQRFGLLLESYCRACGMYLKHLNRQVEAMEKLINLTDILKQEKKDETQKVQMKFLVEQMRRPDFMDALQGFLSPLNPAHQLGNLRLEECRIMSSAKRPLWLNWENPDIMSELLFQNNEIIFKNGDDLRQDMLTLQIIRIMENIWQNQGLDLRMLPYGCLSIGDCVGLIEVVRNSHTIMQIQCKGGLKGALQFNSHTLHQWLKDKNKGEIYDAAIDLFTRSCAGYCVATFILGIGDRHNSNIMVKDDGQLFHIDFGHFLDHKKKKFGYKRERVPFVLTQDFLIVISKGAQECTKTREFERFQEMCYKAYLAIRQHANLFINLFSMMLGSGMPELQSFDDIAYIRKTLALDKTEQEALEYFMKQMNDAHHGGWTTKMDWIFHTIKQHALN
Chain of Target kinase isoforms (PI3K, mTOR, RAF, MEK) (Homo sapiens, UniProt P48736) (P48736 whole entry, canonical isoform): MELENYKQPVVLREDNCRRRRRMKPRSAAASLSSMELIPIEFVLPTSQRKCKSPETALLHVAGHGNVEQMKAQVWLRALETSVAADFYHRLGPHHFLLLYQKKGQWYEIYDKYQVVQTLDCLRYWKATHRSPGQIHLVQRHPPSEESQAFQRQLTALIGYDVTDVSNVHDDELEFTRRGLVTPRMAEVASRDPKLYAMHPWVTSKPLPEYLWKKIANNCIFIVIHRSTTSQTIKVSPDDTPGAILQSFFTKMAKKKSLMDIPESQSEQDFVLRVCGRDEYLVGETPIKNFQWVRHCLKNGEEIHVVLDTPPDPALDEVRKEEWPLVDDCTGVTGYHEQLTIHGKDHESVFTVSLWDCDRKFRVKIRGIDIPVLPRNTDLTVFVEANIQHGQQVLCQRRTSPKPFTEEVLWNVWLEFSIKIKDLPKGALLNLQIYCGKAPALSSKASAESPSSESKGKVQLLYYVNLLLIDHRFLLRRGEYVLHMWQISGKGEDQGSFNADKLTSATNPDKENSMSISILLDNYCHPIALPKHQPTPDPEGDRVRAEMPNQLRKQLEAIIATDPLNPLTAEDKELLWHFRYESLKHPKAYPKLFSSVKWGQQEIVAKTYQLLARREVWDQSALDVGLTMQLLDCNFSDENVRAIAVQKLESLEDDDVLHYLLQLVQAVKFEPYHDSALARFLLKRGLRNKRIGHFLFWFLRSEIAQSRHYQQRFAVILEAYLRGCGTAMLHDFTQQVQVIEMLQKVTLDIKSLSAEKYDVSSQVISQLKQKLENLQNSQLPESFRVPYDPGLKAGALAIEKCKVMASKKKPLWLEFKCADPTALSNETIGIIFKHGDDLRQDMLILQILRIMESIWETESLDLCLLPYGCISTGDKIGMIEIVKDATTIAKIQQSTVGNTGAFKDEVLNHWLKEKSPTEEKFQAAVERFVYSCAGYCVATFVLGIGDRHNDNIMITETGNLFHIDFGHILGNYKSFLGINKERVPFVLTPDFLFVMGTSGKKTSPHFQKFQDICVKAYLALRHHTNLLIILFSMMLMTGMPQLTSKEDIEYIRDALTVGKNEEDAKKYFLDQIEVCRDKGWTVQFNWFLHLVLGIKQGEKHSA

activity at 670 fM ([1]; concentration 0.00067 nM): 113%
Kinase Activity (%) PI3K delta ([1]; concentration 0.00067 nM, 670 fM): 102%
activity at 18.7 pM ([1]; concentration 0.0187 nM): 97%
Kinase Activity (%) PI3K delta [1, 6]: 108%
activity at 56.2 pM ([1]; concentration 0.0562 nM): 81%
Kinase Activity (%) PI3K delta [1, 7]: 16% and 14% and 11% and 8%
Kinase Activity (%) PI3K delta [1, 8]: 6%
activity at 0.0412 µM ([1]; concentration 41.2 nM): 4%
activity at 0.123 µM ([1]; concentration 123 nM): 4%
activity at […] ([1]; concentration 370 nM): 4%
activity at 1.11 µM ([1]; concentration 1110 nM): 4%
Kinase Activity (%) PI3K delta ([1]; concentration 1110 nM, 1.11 µM): 6%
activity at 3.33 µM ([1]; concentration 3330 nM): 5%
Kinase Activity (%) PI3K delta ([1]; concentration 3330 nM, 3.33 µM): 6% and 7%
Kinase Activity (%) PI3K delta ([1]; concentration 10000 nM, 10 µM): 7% and 0%
activity at 2.04 pM ([1]; concentration […]): 103%
activity at 6.09 pM ([1]; concentration […]): 104%
Kinase Activity (%) PI3K delta ([1]; concentration […], 2.04 pM): 105%
Kinase Activity (%) PI3K delta ([1]; concentration […], 6.09 pM): 106%
activity at 670 fM ([2]; concentration 0.000670 nM): 105%
Kinase Activity (%) PI3K alpha ([2]; concentration 0.00209 nM, 2.09 pM): 101%
activity at 18.8 pM ([2]; concentration 0.0188 nM): 91%
Kinase Activity (%) PI3K alpha ([2]; concentration 0.0188 nM, 18.8 pM): 89%
activity at 56.4 pM ([2]; concentration 0.0564 nM): 73%
Kinase Activity (%) PI3K alpha ([2]; concentration 0.0564 nM, 56.4 pM): 75%
activity at 0.000495 µM ([2]; concentration 0.495 nM): 15%
Kinase Activity (%) PI3K alpha [2, 7]: 17% and 18% and 16% and 20%
activity at 0.00152 µM ([2]; concentration 1.52 nM): 4%
Kinase Activity (%) PI3K alpha [2, 9]: 5% and 6%
Kinase Activity (%) PI3K alpha [2, 8]: 1%
activity at 0.0412 µM ([2]; concentration 41.2 nM): 0%
activity at 0.123 µM ([2]; concentration 123 nM): 0%
activity at […] ([2]; concentration 370 nM): 0%
activity at 1.11 µM ([2]; concentration 1110 nM): 0%
Kinase Activity (%) PI3K alpha ([2]; concentration 10000 nM, 10 µM): 1%
activity at 18.7 pM ([3]; concentration 0.0187 nM): 103%
Kinase Activity (%) PI3K beta [3, 6]: 108%
activity at 56.2 pM ([3]; concentration 0.0562 nM): 110%
Kinase Activity (%) PI3K beta ([3]; concentration 0.0562 nM, 56.2 pM): 106%
Kinase Activity (%) PI3K beta [3, 9]: 48% and 51% and 47% and 67% and 62%
activity at 0.0412 µM ([3]; concentration 41.2 nM): 9%
Kinase Activity (%) PI3K beta ([3]; concentration 41.2 nM, 0.0412 µM): 7% and 8% and 10%
activity at 0.123 µM ([3]; concentration 123 nM): 9%
Kinase Activity (%) PI3K beta ([3]; concentration 123 nM, 0.123 µM): 6% and 10% and 8% and 7%
activity at […] ([3]; concentration 370 nM): 12%
activity at 1.11 µM ([3]; concentration 1110 nM): 9%
Kinase Activity (%) PI3K beta ([3]; concentration 1110 nM, 1.11 µM): 8%
activity at 3.33 µM ([3]; concentration 3330 nM): 11%
Kinase Activity (%) PI3K beta ([3]; concentration 3330 nM, 3.33 µM): 10%
activity at 2.04 pM ([3]; concentration […]): 107%
activity at 0.00152 µM ([4]; concentration 1.52 nM): 19%
Kinase Activity (%) PI3K gamma [4, 9]: 24% and 22% and 20% and 21%
activity at 0.0412 µM ([4]; concentration 41.2 nM): 0%
activity at 0.123 µM ([4]; concentration 123 nM): 0%
Kinase Activity (%) PI3K gamma ([4]; concentration 370 nM, […]): 1%
activity at 1.11 µM ([4]; concentration 1110 nM): 0%
activity at 3.33 µM ([4]; concentration 3330 nM): 0%
Kinase Activity (%) PI3K gamma ([4]; concentration 10000 nM, 10 µM): 5%
Kinase Activity (%) PI3K gamma ([4]; concentration […], 6.09 pM): 103%
SMILES: COc1ncc(-c2ccc3nccc(-c4ccnnc4)c3c2)cc1NS(=O)(=O)c1ccc(F)cc1F [GSK2126458]
Kinase Activity (%) PI3K beta [3, 7]: 72% and 62% and 60% and 71% and 65% and 84%

Concentration ([5]; Supplementary Figure 6a, i.v., Time 0.167 h, individual replicates): 6.65 ng/mL and 5.91 ng/mL
Concentration ([5]; Supplementary Figure 6a, p.o., Time 0.167 h, individual replicates): 36.6 ng/mL and 47.3 ng/mL and 12.7 ng/mL
Concentration ([5]; Supplementary Figure 6a, p.o., Time 0.5 h, individual replicates): 11.6 ng/mL and 6.25 ng/mL
Concentration ([5]; Supplementary Figure 6a, p.o., Time 1 h, individual replicates): 8.93 ng/mL and 16.9 ng/mL and 5.41 ng/mL
concentration at 0.167 h ([5]; female, CD-1, mouse, plasma, iv, 15 mg kg^−1, Concentration, Supplementary Figure 6a, Time 0.167 h, individual replicates): 9.48 ng/mL
concentration at 0.5 h ([5]; female, CD-1, mouse, plasma, iv, 15 mg kg^−1, Concentration, Time 0.5 h, individual animals, Supplementary Figure 12b): 642 ng/mL
concentration at 1 h ([5]; female, CD-1, mouse, plasma, iv, 15 mg kg^−1, Concentration, Time 1 h, individual animals, Supplementary Figure 12b): 694 ng/mL
concentration at 2 h ([5]; female, CD-1, mouse, plasma, iv, 15 mg kg^−1, Concentration, Time 2 h, individual animals, Supplementary Figure 12b): 122 ng/mL
concentration at 4 h ([5]; female, CD-1, mouse, plasma, iv, 15 mg kg^−1, Concentration, Time 4 h, individual animals, Supplementary Figure 12b): 36.6 ng/mL
concentration at 7 h ([5]; female, CD-1, mouse, plasma, iv, 15 mg kg^−1, Concentration, Time 7 h, individual animals, Supplementary Figure 12b): 23.1 ng/mL
concentration at 16 h ([5]; female, CD-1, mouse, plasma, iv, 15 mg kg^−1, Concentration, Time 16 h, individual animals, Supplementary Figure 12b): 1.67 ng/mL
concentration at 24 h ([5]; female, CD-1, mouse, plasma, iv, 15 mg kg^−1, Concentration, Time 24 h, individual animals, Supplementary Figure 12b): 3.48 ng/mL
concentration at 0.5 h ([5]; female, CD-1, mouse, plasma, po, 400 mg kg^−1, Concentration, Supplementary Figure 6a, Time 0.5 h, individual replicates): 8.5 ng/mL
concentration at 2 h ([5]; female, CD-1, mouse, plasma, po, 400 mg kg^−1, Concentration, Supplementary Figure 6a, Time 2 h, individual replicates): 3.37 ng/mL
Concentration ([5]; i.v., Time 0.167 h, individual animals, Supplementary Figure 12b): 6980 ng/mL and 3600 ng/mL and 9800 ng/mL
Concentration ([5]; i.v., Time 0.5 h, individual animals, Supplementary Figure 12b): 950 ng/mL and 1228 ng/mL
Concentration ([5]; i.v., Time 1 h, individual animals, Supplementary Figure 12b): 1082 ng/mL
Concentration ([5]; i.v., Time 2 h, individual animals, Supplementary Figure 12b): 115.8 ng/mL and 191 ng/mL
Concentration ([5]; i.v., Time 4 h, individual animals, Supplementary Figure 12b): 46.7 ng/mL and 58.4 ng/mL
Concentration ([5]; i.v., Time 7 h, individual animals, Supplementary Figure 12b): 33.2 ng/mL and 30.9 ng/mL
Concentration ([5]; i.v., Time 16 h, individual animals, Supplementary Figure 12b): 1.98 ng/mL
Concentration ([5]; i.v., Time 24 h, individual animals, Supplementary Figure 12b): 2.84 ng/mL and 3.15 ng/mL
Concentration ([5]; p.o., Time 0.167 h, individual animals, Supplementary Figure 12b): 470 ng/mL and 532 ng/mL and 956 ng/mL
Concentration ([5]; p.o., Time 0.5 h, individual animals, Supplementary Figure 12b): 3100 ng/mL and 1908 ng/mL and 6600 ng/mL
Concentration ([5]; p.o., Time 1 h, individual animals, Supplementary Figure 12b): 1430 ng/mL and 460 ng/mL and 669 ng/mL
Concentration ([5]; p.o., Time 2 h, individual animals, Supplementary Figure 12b): 1190 ng/mL and 582 ng/mL and 3880 ng/mL
Concentration ([5]; p.o., Time 4 h, individual animals, Supplementary Figure 12b): 221 ng/mL and 348 ng/mL and 1410 ng/mL
Concentration ([5]; p.o., Time 7 h, individual animals, Supplementary Figure 12b): 1250 ng/mL and 340 ng/mL and 726 ng/mL
Concentration ([5]; p.o., Time 16 h, individual animals, Supplementary Figure 12b): 461 ng/mL and 352 ng/mL and 189 ng/mL
Concentration ([5]; p.o., Time 24 h, individual animals, Supplementary Figure 12b): 55.8 ng/mL and 114 ng/mL and 252 ng/mL
SMILES: O=C(O)CCOCCOCCOCCONC(=O)c1ccc(F)c(F)c1Nc1ccc(I)cc1F [LP-622, 1-(3,4-difluoro-2-((2-fluoro-4-iodophenyl)amino)phenyl)-1-oxo-3,6,9,12-tetraoxa-2-azapentadecan-15-oic acid]
